What was measured:
Polycomb protein EED [1] = target: T1, Polycomb protein EED (Homo sapiens, UniProt O75530); test: Binding affinity to GST tagged EED (unknown origin) after 1 hr by OG(488) probe based TR-FRET assay
Polycomb protein EED [2] = target: T1, Polycomb protein EED; test: Binding affinity to His tagged human EED (77 to 441 residues) expressed in Escherichia coli BL21(DE3)-T1R by ITC method; conditions: read-out: Kd(app)
Polycomb protein EED [3] = target: T1, Polycomb protein EED; test: Binding affinity to biotin labelled human EED (78 to 441 residues) by SPR assay

T1 sequence (O75530 whole entry, the tested form may be a part): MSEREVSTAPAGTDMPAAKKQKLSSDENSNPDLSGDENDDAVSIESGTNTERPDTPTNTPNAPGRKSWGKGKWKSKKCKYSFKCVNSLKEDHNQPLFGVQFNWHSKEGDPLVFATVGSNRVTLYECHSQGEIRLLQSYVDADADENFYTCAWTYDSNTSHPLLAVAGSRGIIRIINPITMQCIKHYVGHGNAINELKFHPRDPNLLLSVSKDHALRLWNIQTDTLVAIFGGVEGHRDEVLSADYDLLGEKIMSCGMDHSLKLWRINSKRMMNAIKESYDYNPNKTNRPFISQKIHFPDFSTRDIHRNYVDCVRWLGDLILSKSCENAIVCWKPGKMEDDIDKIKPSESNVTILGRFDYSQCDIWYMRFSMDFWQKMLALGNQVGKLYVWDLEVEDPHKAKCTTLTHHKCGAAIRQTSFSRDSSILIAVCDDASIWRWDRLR

SMILES | Ki (Polycomb protein EED [1]) [nM] | Kd (Polycomb protein EED [2]) [nM] | Kd (Polycomb protein EED [3]) [nM]
CC(=O)N1CCN(c2ccc([C@H]3CN(C4CCc5cccc(F)c54)C[C@@H]3N(C)C)cc2)CC1 (some centres not stated) | 0.7 | 2100 | 4
CN(C)c1cc(N2CCc3ccccc3C2)ccn1 | 680 | 2500 | –
CN(C)[C@@H]1CN(Cc2c(F)cccc2Br)C[C@H]1c1cn(C)c2ccccc12 | 80 | 370 | 3100
CC(=O)N1CCN(c2ccc([C@H]3CN([C@@H]4CCc5cccc(F)c54)C[C@@H]3N(C)C)cc2)CC1 | 3 | 1140 | 100
Cc1cccc(F)c1CN1C[C@H](c2ccc(S(C)(=O)=O)cc2)[C@@H](N(C)C)C1 | 10 | 30 | 140
COc1ccccc1N1CCN(C(=O)c2ccccc2S(C)(=O)=O)CC1 | 1500 | – | 13400
CN(C)[C@H]1CN(Cc2c(F)cccc2Br)C[C@@H]1c1cn(C)c2ccccc12 | 10 to 20 | 90 | 150 to 310
CC(=O)N1CCN(c2ccc([C@@H]3CN([C@@H]4CCc5cccc(F)c54)C[C@H]3N(C)C)cc2)CC1 | 18 | 110 | 200
COc1ccc([C@H]2CN(Cc3c(C)cccc3F)C[C@@H]2N(C)C)cc1OC | 12 | – | 210
COc1ccc([C@H]2CN(Cc3c(F)cccc3Br)C[C@@H]2N(C)C)cc1OC | 18 | – | 300
CN(C)[C@H]1CN([C@H]2CCc3cccc(F)c32)C[C@@H]1c1cn(C)c2ccccc12 | – | 10 | –
CC(=O)N1CCN(c2ccc([C@H]3CN(Cc4c(C)cccc4F)C[C@@H]3N(C)C)cc2)CC1 | 3 | – | 20
CC(=O)N1CCN(c2ccc([C@H]3CN([C@H]4CCc5cccc(F)c54)C[C@@H]3N(C)C)cc2)CC1 | 0.3 | 10 | 1
CN(C)[C@H]1CN(Cc2c(F)cccc2Br)C[C@@H]1c1ccccc1 | 110 | – | 4800
Cc1cccc(F)c1CN1C[C@H](c2cn(C)c3ccccc23)[C@@H](N(C)C)C1 | – | 6 | –
CC(=O)N1CCN(c2ccc([C@@H]3CN([C@H]4CCc5cccc(F)c54)C[C@H]3N(C)C)cc2)CC1 | 42 | 2200 | 290
CN(C)[C@H]1CN(Cc2c(F)cccc2Br)C[C@@H]1c1ccccn1 | 450 | – | 9800
Cc1cccc(F)c1CN1C[C@@H](N(C)C)[C@H](c2ccc(S(C)(=O)=O)cc2)C1 | 290 | 940 | 1400
CN(C)[C@H]1CN(Cc2c(F)cc(O)cc2Br)C[C@@H]1c1cn(C)c2ccccc12 | 8 | – | 61
COc1ccc([C@H]2CN(C3CCc4cccc(F)c43)C[C@@H]2N(C)C)cc1OC (some centres not stated) | 3 | – | 43
CN(C)[C@H]1CN(Cc2c(F)cccc2Br)C[C@@H]1c1ccc(O)cc1 | 91 | – | 2600
c1ccc2c(c1)CCN(c1ccncc1)C2 | 950 | 5200 | 22000

Source: ChEMBL document CHEMBL4017527, “Are We There Yet? Applying Thermodynamic and Kinetic Profiling on Embryonic Ectoderm Development (EED) Hit-to-Lead Program” (J Med Chem, 2017)
